# Measurements as given in US20110015162A1, “15,16-Methylene-17-hydroxy-19-nor-21-carboxylic acid-steroid Y-lactone derivative, use thereof and medicinal products containing the derivative” (Bayer Schering Pharma Aktiengesellschaft, priority 2007, published 2011).
# How the values were obtained:
# [1] = target: T1, fusion protein from the PR-ligand-binding domain and a Gal4-transactivation domain (Homo sapiens, UniProt P06401); test: Progestational action by transactivation test (CHO K1 reporter cells); format: cell-based; conditions: CHO-K1, 16 h, read-out: Progesterone receptor Agonism efficacy
# T1 construct: expressed in transfected cells; host or cells: CHO K1 cells, stably transfected
# T1 sequence (P04386 1-147 partner limits assumed, one chain of several): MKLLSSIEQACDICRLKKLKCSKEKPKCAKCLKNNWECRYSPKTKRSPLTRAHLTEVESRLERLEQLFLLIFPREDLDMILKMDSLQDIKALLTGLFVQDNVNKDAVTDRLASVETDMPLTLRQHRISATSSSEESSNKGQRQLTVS
# Procedure: 4. Determination of Progestational Action by Means of Transactivation Tests:
# The culture medium used for culture of the cells used for the assay was DMEM (Dulbecco's Modified Eagle Medium: […] glucose; PAA, #E15-009) with 10% FCS (Biochrom, S0115, batch #615B), 4 mM L-glutamine, 1% penicillin/streptomycin, 1 mg/ml G418 and 0.5 μg/ml puromycin.
# Reporter cell lines (CHO K1 cells stably transfected with a fusion protein from the PR-ligand-binding domain and a Gal4-transactivation domain and a reporter construct, which contained luciferase under the control of a Gal4-responsive promoter) were seeded at a density of 4×10^4 cells per well in white, opaque tissue culture plates each with 96 wells (PerkinElmer, #P12-106-017) and kept in culture medium with 3% DCC-FCS (serum treated with activated charcoal to remove interfering components contained in the serum). The test compounds were added eight hours later, and the cells were incubated with the compounds for 16 hours. The tests were carried out in triplicate. At the end of incubation the medium containing the effector was removed and replaced with lysis buffer. After luciferase assay substrate (Promega, #E1501) had been added, the 96-well plates were then put in a microplate luminometer (Pherastar, BMG Labtech), and the luminescence was measured. The IC50 values were evaluated using software for calculating dose-effect relations.
# [2] = target: T2, mineralocorticoid receptor (Homo sapiens, UniProt P08235); test: Antimineralocorticoid action by transactivation test (MDCK reporter cells); format: cell-based; design: expressed in transfected cells; host or cells: MDCK cells;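 as to Emax: percent inhibition of the aldosterone-stimulated reporter signal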
# T2 sequence (P08235 1-984): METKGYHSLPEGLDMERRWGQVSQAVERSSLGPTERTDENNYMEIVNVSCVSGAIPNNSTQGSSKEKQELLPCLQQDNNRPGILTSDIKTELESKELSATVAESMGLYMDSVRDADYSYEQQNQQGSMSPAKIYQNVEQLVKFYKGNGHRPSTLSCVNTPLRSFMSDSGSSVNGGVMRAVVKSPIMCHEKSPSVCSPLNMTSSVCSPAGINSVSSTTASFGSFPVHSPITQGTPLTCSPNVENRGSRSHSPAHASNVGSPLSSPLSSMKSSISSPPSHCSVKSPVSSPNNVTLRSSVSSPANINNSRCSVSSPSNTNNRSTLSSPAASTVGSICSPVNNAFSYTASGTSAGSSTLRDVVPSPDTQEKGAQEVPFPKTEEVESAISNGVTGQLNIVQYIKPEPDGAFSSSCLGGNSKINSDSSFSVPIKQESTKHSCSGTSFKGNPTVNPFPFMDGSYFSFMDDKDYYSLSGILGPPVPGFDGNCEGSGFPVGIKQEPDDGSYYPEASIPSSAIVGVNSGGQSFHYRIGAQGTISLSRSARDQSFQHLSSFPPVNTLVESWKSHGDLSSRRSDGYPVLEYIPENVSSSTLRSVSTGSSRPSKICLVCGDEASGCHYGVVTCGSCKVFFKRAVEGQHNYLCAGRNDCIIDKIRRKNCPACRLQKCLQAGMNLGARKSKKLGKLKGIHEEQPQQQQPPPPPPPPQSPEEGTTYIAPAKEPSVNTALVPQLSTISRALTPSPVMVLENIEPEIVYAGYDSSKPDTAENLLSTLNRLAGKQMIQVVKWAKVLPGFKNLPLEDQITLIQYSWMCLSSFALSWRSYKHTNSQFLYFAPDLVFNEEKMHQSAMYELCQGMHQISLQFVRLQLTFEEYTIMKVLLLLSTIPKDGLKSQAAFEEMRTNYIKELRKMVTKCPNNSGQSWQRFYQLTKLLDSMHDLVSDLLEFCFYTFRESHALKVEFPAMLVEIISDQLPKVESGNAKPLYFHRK
# Procedure: The test compounds were added eight hours later, and the cells were incubated with the compounds for 16 hours. The tests were carried out in triplicate. At the end of incubation the medium containing the effector was removed and replaced with lysis buffer. After luciferase assay substrate (Promega, #E1501) had been added, the 96-well plates were then put in a microplate luminometer (Pherastar, BMG Labtech), and the luminescence was measured. The IC50 values were evaluated using software for calculating dose-effect relations.
# 5. Determination of Antimineralocorticoid Action by Means of Transactivation Tests:
# The antimineralocorticoid activity of the test substances was determined as for the transactivation tests described above.
# The following modifications were undertaken: In this case reporter cell lines were used (MDCK cells) that express the human mineralocorticoid receptor, and transiently contain a reporter construct that contains luciferase under the control of a steroid hormone-responsive promoter.
# [3] = target: T2, mineralocorticoid receptor; test: Mineralocorticoid receptor binding test; design: made in house; host or cells: Hi5 insect cells (cytosol); conditions: reference substance 3H-aldosterone, cytosol from MR-expressing insect cells (Hi5)
# Procedure: (§1) Using cytosol from progesterone receptor-expressing insect cells (Hi5), competitive binding to the progesterone receptor was determined from the ability to displace ^3H-progesterone as reference substance from the receptor.
# 2. Mineralocorticoid Receptor Binding Test:
# The test was carried out as in 1, with the following modifications: cytosol from mineralocorticoid receptor-expressing insect cells (Hi5) was used, and the reference substance was ^3H-aldosterone.
# progesterone receptor = target: T3, progesterone receptor (Homo sapiens, UniProt P06401); test: Progesterone receptor binding test; conditions: CF 1 = affinity of progesterone; CF >1 lower affinity, <1 higher affinity
# T3 construct: made in house; host or cells: Hi5 insect cells (cytosol)
# T3 sequence (P06401 1-933): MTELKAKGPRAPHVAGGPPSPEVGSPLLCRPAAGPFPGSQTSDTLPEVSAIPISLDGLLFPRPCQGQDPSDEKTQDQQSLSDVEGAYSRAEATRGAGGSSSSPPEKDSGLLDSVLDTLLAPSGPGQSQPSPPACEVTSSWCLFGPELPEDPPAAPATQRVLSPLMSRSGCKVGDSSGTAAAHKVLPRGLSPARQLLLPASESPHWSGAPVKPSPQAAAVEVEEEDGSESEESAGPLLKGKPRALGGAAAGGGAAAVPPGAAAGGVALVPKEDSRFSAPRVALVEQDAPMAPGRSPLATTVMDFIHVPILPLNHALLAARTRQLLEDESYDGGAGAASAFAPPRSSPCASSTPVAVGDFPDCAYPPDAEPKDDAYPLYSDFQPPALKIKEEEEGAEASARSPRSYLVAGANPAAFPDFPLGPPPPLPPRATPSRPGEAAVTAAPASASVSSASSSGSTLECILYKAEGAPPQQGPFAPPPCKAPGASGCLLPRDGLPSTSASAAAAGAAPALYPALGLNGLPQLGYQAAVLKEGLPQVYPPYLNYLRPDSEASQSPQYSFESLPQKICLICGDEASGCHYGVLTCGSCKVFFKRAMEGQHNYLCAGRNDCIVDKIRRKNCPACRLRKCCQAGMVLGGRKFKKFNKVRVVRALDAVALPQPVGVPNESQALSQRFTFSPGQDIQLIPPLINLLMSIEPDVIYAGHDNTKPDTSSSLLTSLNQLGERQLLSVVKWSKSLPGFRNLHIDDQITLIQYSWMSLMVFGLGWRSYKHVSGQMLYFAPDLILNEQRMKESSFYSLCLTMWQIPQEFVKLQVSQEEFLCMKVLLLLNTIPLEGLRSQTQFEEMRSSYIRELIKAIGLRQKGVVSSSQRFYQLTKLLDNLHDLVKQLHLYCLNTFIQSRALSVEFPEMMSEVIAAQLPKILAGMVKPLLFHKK
# Procedure: 1. Progesterone Receptor Binding Test:
# as §1
smiles,measurement,setting,value
"C[C@]12CCC(=O)C=C1[C@@H]1C[C@@H]1[C@H]1[C@@H]3[C@@H]4C[C@@H]4[C@@]4(CCC(=O)O4)[C@@]3(C)CC[C@@H]12 [A, 6β, 7β;15β,16β-dimethylene-3-oxo-17-pregn-4-ene-21,17β-carbolactone, reference compound]",Emax,[1],72.2%
same,IC50,"[2]; MDCK cells, with 1 nM aldosterone, read-out: Mineralocorticoid receptor Antagonism IC50",3.3 nM
same,Emax,"[2]; MDCK, read-out: Mineralocorticoid receptor Antagonism efficacy",64.1%
same,Mineralocorticoid receptor (MR) Competition factor,[3],0.5
same,Progesterone receptor (PR) Competition factor,progesterone receptor,2.7
